Measured values taken from patent US6458781B1, “Substituted diarylalkyl amides as calcium channel antagonists” (priority 1998, dated 2002).
Where a name gives a salt, the structure may show the parent alone. Read-outs that look alike come from different tables or passages of the source.

Tests used:
[1] = test system: sound-induced tonic convulsions in DBA/2 mice; experiment: Audiogenic seizure model in DBA/2 mice; type: in vivo; conditions: Mus musculus, 30 mg/Kg IV, protected/tested, read-out: Number of Mice Protected From Tonic Convulsions (converted)
Experimental: Audiogenic Seizure Model in DBA/2 Mice
A compound of the present invention was dissolved in water using 10% (weight/volume) Emulphor (GAF Corp., Wayne, N.J.) surfactant. Substances were administered by intravenous injection into the retro-orbital venous sinus of male mice (3-4 weeks old, Jackson Laboratories, Bar Harbour, Me.). All testing was preformed 15 minutes or 45 minutes after drug injection. Immediately before anticonvulsant testing, mice were placed upon a wire mesh, 4 inches square suspended from a steel rod. The square was slowly inverted through 180 degrees and mice observed for 30 seconds. Any mouse falling from the wire mesh was scored as ataxic.
Mice were placed into an enclosed acrylic plastic chamber (21 cm height, approximately 30 cm diameter) with a high-frequency speaker (4 cm diameter) in the center of the top lid. An audio signal generator (Protek model B-810) was used to produce a continuous sinusoidal tone that Was swept linearly in frequency between 8 kHz and 16 kHz once each 10 msec. The average sound pressure level (SPL) during stimulation was approximately 100 dB at the floor of the chamber. Mice were placed within the chamber and allowed to acclimatize for 1 minute. DBA/2 mice in the vehicle-treated group responded to the sound stimulus (applied until tonic extension occurred, or for a maximum of 60 sec) with a characteristic seizure sequence consisting of wild running followed by clonic seizures, and later by tonic extension, and finally by respiratory arrest and death in 80% or more of the mice. In vehicle-treated mice, the entire sequence of seizures to respiratory arrest lasts approximately 15-20 seconds.
The incidence of all the seizure phases in the drug-treated and vehicle-treated mice was recorded, and the occurrence of tonic seizures were used for calculating anticonvulsant ED50 values by probit analysis. Mice were used only once for testing at each time and dose point.

[2] = target: T1, N-type Ca2+ channels in cultured superior cervical ganglion (SCG) neurons (Rattus norvegicus, UniProt Q02294); experiment: Calcium current in superior cervical ganglion neurons (whole-cell voltage clamp); type: cell-based; conditions: for inhibition at 1 µM: read-out: SCG Ca, % blockage at 1 μM; for inhibition at 10 µM: read-out: SCG Ca, % blockage at 10 μM
T1 construct: from tissue
Experimental: (§1) Electrophysiological techniques were used to measure the effects of experimental compounds on voltage-gated Ca^2+, […] , and K^+ channels. […] Sodium and potassium channel currents were measured from acutely dissociated SCG neurons.
(§2) Dissociation of the neurons from the ganglia was accomplished using a 30 to 45 minute treatment in 0.25% trypsin, similar to methods outlined in Higgins, et al. (see Higgins D. et al. “Tissue culture of mammalian autonomic neurons.” In Banker G. and Goslin K. (Eds), Culturing Nerve Cells, Cambridge, Mass., MIT Press [1991]).
(§3) Ca^2+, Na^+, and K^+ channel currents in SCG neurons were measured using conventional single electrode whole-cell voltage-clamp techniques, outlined in Hamill et al., (see Hamill O. P. et al. “Improved patch-clamp techniques for high resolution current recordings from cells and cell-free membrane patches.”Pflugers Arch., 1981;391:85-100). For Ca^2+ channel experiments, the external bathing solution contained tetraethylammonium chloride (100 mM), choline chloride (52 mM), NaCl (15 mM), HEPES (10 mM), glucose (5.6 mM), CaCl2 (2 mM), and MgCl2 (0.8 mM), pH 7.35 with KOH; with the internal pipette solution containing cesium methane sulfonate (140 mM), EGTA (10 mM), and HEPES (10 mM), supplemented with 5 mM Mg^2+-ATP on the day of the experiment, pH 7.4 with CsOH. For Na^+ and K^+ channel experiments, the external bathing solution contained NaCl (150 mM), KCl (5 mM), MgCl2 (1.1 mM), CaCl2 (2.6 mM), Na-HEPES (10 mM), and glucose (10 mM), pH 7.4; with the internal pipette solution containing KCl (80 mM), K-gluconate (50 mM), HEPES (10 mM), and EGTA (10 mM), pH 7.4 with KOH. Experimental compounds were diluted into the external solution and applied to the soma of cells by local perfusion from large diameter (20-50 μm) glass micropipettes or from a U-tube applicator.
After obtaining a whole-cell recording, Ca^2+ channels were elicited by stepping to test potentials between −40 and +20 mV for 120 msec from the holding potential of −90 mV to determine if the amplitude of the current and clamp control were adequate for evaluation of drug effects. Ca^2+ channel currents were evoked by stepping from a holding potentials between −65 mV and −55 mV to a test potential of +20 mV for 150 msec every 40 seconds. The amplitude of the Ca^2+ channel currents were compared before and during drug application and drug effects expressed as percent inhibition of the amplitude of control currents.

[3] = test system: Na+ channels in SCG neurons; experiment: Sodium current in superior cervical ganglion neurons (whole-cell voltage clamp); type: cell-based, rat; conditions: at 10 μM
Experimental: as §1, §2, §3
(§4) For Na^+ and K^+ channel currents, following the determination of the I/V relationship for each cell in control solution, currents were evoked from a holding potential between −65 and −55 mV by stepping every 10 sec to a test potential of either 0 mV for Na^+ or +50 mV for K^+ current for a duration of 35 msec. Peak inward current was measured for Na^+ and sustained current for K^+ channel currents. […] Test compounds were applied until steady-state block was achieved. Data were expressed as percent inhibition of control amplitudes for Na^+ and K^+ channel currents.

[4] = test system: K+ channels in SCG neurons; experiment: Potassium current in superior cervical ganglion neurons (whole-cell voltage clamp); type: cell-based, rat
Experimental: as §1, §2, §3, §4

[5] = target: T2, N-type calcium channels in IMR-32 cells (Homo sapiens, UniProt Q00975); experiment: N-type Ca2+ channel blocking potency in IMR-32 cells using Indo-1; type: cell-based; conditions: for IC50: IMR-32 cells, 5 μM nitrendipine present, read-out: IMR32 IC50
T2 construct: host or cells: IMR-32 cells differentiated with dibutyryl cAMP and bromodeoxyuridine
Procedure, shortened: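 Differentiated IMR-32 cells loaded with Indo-1 AM were preincubated with compound and 5 μM nitrendipine (L-type block) for 10 min at 30° C in HEPES/Tris pH 7.4 HBSS with 0.5% BSA. Cells were depolarized with KCl/CaCl2, and the 400/490 nm emission ratio rise over basal was measured. IC50 came from a four-parameter logistic fit.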

[6] = test system: electroshock-induced tonic extensor seizures in CF-1 mice; experiment: Maximal electroshock testing; type: in vivo; conditions: protected/tested
Experimental: Maximal Electroshock Testing
In this test, four representative compounds were tested for their anticonvulsant effects using the procedure described below.
Male CF-1 mice, 20 to 28 g, from Charles River Laboratories, Portage, Mich. were used in all experiments. Groups of 10 mice each were given various intravenous doses of test compound in aqueous solution with 10% Emulphan® Surfactant in a volume of 10 mL/kg of body weight. Electroshock was delivered by corneal electrodes with 60 Hz alternating current (50 mA root-mean-squared for 0.2 seconds) using a constant-current stimulator (Wahlquist Instruments, Salt Lake City, Utah). Untreated or saline-treated mice reliably had tonic extensor seizures with rearward extension of hindlimbs more than 3 seconds. These methods are similar to those published by Krall R. L.; Penry J. K.; White B. G.; and Kupferberg H. K. Antiepileptic Drug Development II. Anticonvulsant Drug Screening, Epilepsia, 1978; 19:409-428.

[7] = 10 mg/Kg iv, 15 min posttreatment

T2 sequence (Q00975 whole entry): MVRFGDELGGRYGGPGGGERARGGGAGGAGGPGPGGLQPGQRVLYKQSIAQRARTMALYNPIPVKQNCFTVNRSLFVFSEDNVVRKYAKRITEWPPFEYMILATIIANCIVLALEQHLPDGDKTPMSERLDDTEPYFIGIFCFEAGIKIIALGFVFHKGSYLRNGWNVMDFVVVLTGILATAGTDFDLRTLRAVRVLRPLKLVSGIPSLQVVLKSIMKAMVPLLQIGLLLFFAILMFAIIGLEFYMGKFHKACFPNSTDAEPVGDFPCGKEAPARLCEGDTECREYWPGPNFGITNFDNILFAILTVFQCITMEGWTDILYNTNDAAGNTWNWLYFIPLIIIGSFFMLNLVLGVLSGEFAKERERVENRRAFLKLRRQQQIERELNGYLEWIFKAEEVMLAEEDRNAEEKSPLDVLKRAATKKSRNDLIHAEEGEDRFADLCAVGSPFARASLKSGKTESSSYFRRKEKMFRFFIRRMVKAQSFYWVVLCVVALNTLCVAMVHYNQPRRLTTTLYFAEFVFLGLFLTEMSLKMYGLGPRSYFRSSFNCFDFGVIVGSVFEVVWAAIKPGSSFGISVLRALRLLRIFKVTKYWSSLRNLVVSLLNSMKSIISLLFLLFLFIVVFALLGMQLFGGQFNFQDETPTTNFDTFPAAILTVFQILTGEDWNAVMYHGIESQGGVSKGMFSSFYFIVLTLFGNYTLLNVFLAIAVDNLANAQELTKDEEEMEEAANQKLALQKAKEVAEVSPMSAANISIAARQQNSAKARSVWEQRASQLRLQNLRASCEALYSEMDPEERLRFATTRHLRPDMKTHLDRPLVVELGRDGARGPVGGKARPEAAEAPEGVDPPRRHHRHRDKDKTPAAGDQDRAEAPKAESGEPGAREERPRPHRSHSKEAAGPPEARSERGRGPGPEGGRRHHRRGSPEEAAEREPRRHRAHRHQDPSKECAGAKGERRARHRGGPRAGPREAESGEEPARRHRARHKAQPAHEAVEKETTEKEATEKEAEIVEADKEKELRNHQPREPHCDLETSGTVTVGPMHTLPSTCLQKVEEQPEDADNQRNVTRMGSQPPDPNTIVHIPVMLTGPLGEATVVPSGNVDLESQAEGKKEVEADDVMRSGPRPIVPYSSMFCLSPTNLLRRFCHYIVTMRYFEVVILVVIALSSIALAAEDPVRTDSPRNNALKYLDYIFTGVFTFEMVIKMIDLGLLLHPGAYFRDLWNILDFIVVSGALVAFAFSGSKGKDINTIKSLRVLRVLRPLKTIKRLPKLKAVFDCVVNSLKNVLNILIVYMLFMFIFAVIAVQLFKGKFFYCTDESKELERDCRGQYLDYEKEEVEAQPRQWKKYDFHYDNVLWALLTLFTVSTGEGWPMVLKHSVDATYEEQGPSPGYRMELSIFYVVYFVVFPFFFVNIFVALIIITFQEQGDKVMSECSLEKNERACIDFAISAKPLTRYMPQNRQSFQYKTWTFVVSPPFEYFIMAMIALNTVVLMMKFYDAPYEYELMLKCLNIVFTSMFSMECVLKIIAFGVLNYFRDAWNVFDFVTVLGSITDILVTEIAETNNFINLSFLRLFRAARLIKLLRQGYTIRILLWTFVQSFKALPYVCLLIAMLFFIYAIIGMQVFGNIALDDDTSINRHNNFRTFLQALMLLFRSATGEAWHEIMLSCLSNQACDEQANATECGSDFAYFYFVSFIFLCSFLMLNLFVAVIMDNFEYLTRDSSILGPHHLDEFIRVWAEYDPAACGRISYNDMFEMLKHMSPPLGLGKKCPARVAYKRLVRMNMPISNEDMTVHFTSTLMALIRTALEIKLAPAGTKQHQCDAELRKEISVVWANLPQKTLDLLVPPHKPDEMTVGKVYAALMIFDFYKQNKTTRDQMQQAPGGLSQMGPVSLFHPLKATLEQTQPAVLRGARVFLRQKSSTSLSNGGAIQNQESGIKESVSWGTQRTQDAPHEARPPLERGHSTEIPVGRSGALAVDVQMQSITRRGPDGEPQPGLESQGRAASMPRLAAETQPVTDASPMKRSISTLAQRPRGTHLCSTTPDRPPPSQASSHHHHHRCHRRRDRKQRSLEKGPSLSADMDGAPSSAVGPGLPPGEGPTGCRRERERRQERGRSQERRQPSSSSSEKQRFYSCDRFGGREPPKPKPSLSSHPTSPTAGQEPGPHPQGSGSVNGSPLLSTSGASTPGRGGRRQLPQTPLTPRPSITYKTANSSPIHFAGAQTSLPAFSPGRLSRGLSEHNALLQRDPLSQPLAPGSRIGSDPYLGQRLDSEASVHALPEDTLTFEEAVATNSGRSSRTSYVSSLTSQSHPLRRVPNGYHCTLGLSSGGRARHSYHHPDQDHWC
T2 sequence (P54289 25-956 partner limits assumed): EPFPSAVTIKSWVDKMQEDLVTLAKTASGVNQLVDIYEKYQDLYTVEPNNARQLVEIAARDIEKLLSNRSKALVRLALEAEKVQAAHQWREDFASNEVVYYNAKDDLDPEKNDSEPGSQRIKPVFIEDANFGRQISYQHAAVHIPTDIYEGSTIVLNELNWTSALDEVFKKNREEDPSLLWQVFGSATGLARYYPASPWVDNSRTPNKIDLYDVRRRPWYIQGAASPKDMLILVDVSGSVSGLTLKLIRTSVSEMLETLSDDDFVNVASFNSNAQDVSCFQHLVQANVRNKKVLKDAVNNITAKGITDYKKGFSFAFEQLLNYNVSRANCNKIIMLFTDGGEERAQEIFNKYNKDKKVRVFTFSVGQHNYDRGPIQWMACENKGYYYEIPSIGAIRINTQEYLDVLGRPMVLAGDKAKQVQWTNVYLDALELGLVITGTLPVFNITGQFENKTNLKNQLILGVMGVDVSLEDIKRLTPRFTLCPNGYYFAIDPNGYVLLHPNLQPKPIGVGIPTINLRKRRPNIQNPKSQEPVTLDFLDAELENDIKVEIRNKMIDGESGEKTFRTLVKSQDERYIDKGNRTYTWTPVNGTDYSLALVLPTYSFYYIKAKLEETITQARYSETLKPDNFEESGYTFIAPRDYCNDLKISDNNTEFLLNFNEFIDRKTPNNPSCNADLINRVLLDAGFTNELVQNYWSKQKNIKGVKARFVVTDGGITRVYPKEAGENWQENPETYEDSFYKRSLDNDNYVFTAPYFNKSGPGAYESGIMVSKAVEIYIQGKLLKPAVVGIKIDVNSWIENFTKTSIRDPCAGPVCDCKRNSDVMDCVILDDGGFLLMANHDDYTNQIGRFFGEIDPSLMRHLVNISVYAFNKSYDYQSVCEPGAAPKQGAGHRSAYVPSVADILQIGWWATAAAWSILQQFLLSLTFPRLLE
T2 sequence (P54289 957-1103 partner limits assumed): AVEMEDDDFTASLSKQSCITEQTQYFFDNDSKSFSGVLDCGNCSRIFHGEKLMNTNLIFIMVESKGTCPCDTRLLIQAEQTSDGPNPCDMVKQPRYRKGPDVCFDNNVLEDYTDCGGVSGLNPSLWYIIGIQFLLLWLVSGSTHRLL
T2 sequence (Q02641 whole entry partner): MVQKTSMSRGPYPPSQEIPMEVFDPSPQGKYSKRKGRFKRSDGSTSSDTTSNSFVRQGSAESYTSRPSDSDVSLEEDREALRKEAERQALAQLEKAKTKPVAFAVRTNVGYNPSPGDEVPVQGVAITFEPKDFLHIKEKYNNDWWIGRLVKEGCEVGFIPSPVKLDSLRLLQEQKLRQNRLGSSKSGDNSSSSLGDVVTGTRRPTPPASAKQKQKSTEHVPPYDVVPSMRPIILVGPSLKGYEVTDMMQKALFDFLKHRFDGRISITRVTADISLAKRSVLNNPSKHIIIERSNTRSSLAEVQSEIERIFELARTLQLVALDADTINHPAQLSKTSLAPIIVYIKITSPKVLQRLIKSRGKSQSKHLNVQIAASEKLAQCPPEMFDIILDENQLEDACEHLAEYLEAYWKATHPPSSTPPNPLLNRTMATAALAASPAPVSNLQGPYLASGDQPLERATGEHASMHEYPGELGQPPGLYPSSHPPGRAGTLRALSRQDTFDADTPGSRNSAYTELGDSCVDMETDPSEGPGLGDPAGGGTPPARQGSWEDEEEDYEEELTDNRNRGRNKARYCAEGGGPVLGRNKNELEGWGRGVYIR

SMILES	responders at 30 mg/kg ([1]; 0.25 h, 15 min posttreatment) [%]	inhibition at 1 µM [2] [%]	inhibition at 10 µM [2] [%]	SCG Na, % blockage at 10 μM [3] [% @ 10]	SCG K, % blockage at 1 μM [4] [% @ 1]	SCG K, % blockage at 10 μM [4] [% @ 10]	IC50 [5] [nM]	melting point [°C]	Number of Mice Protected from Tonic Convulsions [6, 7]	responders at 30 mg/kg ([1]; 0.75 h, 45 min posttreatment) [%]	Number of Mice Protected from Tonic Convulsions ([6]; 10 mg/Kg iv, 45 min posttreatment)	Number of Mice Protected from Tonic Convulsions ([6]; 30 mg/Kg iv, 15 min posttreatment)	Number of Mice Protected from Tonic Convulsions ([6]; 30 mg/Kg iv, 45 min posttreatment)	inhibition at 1 µM ([5]; IMR-32, IMR-32 cells, at 1 μM, read-out: IMR32 % blockage at 1 μM) [%]	inhibition at 10 µM ([5]; IMR-32, IMR-32 cells, at 10 μM, read-out: IMR32 % blockage at 10 μM) [%]
CC(C)C[C@H](NC(=O)N1CCCCCC1)C(=O)NCCCC(c1ccc(F)cc1)c1ccc(F)cc1 [Example 1, (S)-Azepane-1-carboxylic acid {1-[4,4-bis-(4-fluoro-phenyl)-butylcarbamoyl]-3-methyl-butyl}-amide]	60	17	16	14	4.3	3	820	–	–	–	–	–	–	–	–
CC(C)C[C@H](NC(=O)N1CCCCCC1)C(=O)NC(c1ccccc1)c1ccccc1 [Example 3, (S)-Azepane-1-carboxylic acid [1-(benzhydryl-carbamoyl)-3-methyl-butyl]-amide]	–	–	33	5	–	48	4400	180 to 181	–	–	–	–	–	–	–
CC(C)=CCN(C)[C@@H](CC(C)C)C(=O)NCCCC(c1ccc(F)cc1)c1ccc(F)cc1 [Example 13, (S)-4-Methyl-2-[methyl-(3-methyl-but-2-enyl)-amino]-pentanoic acid [4,4-bis-(4-fluoro-phenyl)-butyl]-amide monohydrochloride]	–	23	77	95	10	48	520	–	3/5	–	–	–	–	–	–
CC(C)C[C@H](NC1CCCCC1)C(=O)NCCCC(c1ccc(F)cc1)c1ccc(F)cc1.Cl [Example 15, (S)-2-Cyclohexylamino-4-methyl-pentanoic acid [4,4-bis-(4-fluoro-phenyl)-butyl]-amide monohydrochloride]	100	–	–	–	–	–	–	–	5/5	100	2/5	3/3	5/5	62	87
